Measurements: patent publication US9988348B1, “Synthesis and antimicrobial use of a trithiocarbonate derivative” (KING SAUD UNIVERSITY, priority 2017, dated 2018)

Legend:
Test in all cases: disk diffusion assay, inhibition zone
Assay type in all cases: cell-based
[1] = test system: Aspergillus fumigatus AUMC 8794; settings: Aspergillus fumigatus, AUMC8794, A. fumigatus, read-out: Inhibition zone diameter of standard antimicrobial agents; for zone of inhibition at 10 µg/disc: 10 μg/disk
Experimental: (§1) To evaluate antimicrobial activity of the compound 4, synthesized in our laboratory as novel anti-bacterial and anti-fungal agents, the inhibition zone diameter (mm) and the minimal inhibitory concentration were determined according to (Andrews 2001; Hudzicki 2009). The test carried out on several clinical microorganisms included Gram positive bacteria (Staphylococcus aureus ATCC and Streptococcus mutans ATCC 35668), Gram negative bacteria (Escherichia coli ATCC 25922, Salmonella typhimurium ATCC 14028 and Neisseria meningitides ATCC 1302); yeasts (Candid albicans ATCC 60193, Cryptococcus neoformans Wild strain and Candida parapsilosus ATCC 22019) and molds (Aspergillus fumigatus AUMC 8794, Penicillum chrysogenum AUMC 9476 and Fusarium sp.)
(§2) The clinical microorganisms were cultivated at least three times on suitable culture medium and incubating conditions before susceptibility test. The concentration of microbial inoculation suspensions in sterile sodium chloride solution (0.89%) were adjusted to 0.65 at 620 nm by spectrophotometer. […]
(§3) After that, the disks were dried at 25° C. under sterile conditions by safety biological cabinet. A Mueller-Hinton agar (MHA) (Scharlau Microbiogy, Spain) and a potato dextrose agar (PDA) (Scharlau, Spain) were used to perform antibacterial and antifungal test respectively. The media were prepared according to manufacturer's guidelines. To prepare one liter of MHA and one liter of PDA, 21 grams of MHA and 39 grams of PDA were dissolved in one liter of sterile distilled water, followed by sterilization at 121° C. for 15 minutes by an autoclave (HL-321, Taiwan). The sterilized media were poured in sterile plastic Petri dishes at 50° C. The plates were allowed to let the medium solidify at room temperature. 0.1 ml of microbial inoculation suspensions were spread on dried surface of medium and were kept at 25° C. for 5-10 minutes. The compound 4 and standard antimicrobial drugs discs (Table 1) were dispensed on the surface of inoculated media. The tested bacteria and fungi were incubated at 37±1° C. for 19-22 hours and at 25±1 for 48-72 hours respectively. After the incubation, the diameter of inhibition zone (millimeter) resulting from the biological activity of compound were recorded.

[2] = test system: Candid albicans ATCC 60193; settings: Candida albicans, ATCC60193, C. albicans, read-out: Inhibition zone diameter of standard antimicrobial agents; for zone of inhibition at 10 µg/disc: 10 μg/disk
Experimental: as §1, §2, §3

[3] = test system: Candida parapsilosus ATCC 22019; settings: for susceptibility of the strain to the standard drug, in words / zone of inhibition at 10 µg/disc: C. parasilosus; for zone of inhibition at 10 µg/disc: ATCC22019, 10 μg/disk, read-out: Inhibition zone diameter of standard antimicrobial agents
Experimental: as §1, §2, §3

[4] = test system: Cryptococcus neoformans Wild strain; settings: for zone of inhibition at 10 µg/disc: C. neoformasn, 10 μg/disk
Experimental: as §1, §2, §3

Fusarium sp. = settings: read-out: Inhibition zone diameter of standard antimicrobial agents; for zone of inhibition at 10 µg/disc: Fusarium sp., 10 μg/disk
Experimental: as §1, §2, §3

[5] = test system: Penicillum chrysogenum AUMC 9476; settings: read-out: Inhibition zone diameter of standard antimicrobial agents; for zone of inhibition at 10 µg/disc: P. chrysoginum, 10 μg/disk
Experimental: as §1, §2, §3

[6] = test system: Neisseria meningitides ATCC 1302; settings: Neisseria, ATCC1302, N. meningitides, read-out: Inhibition zone diameter of standard antimicrobial agents; for zone of inhibition at 10 µg/disc: 10 μg/disk
[7] = test system: Escherichia coli ATCC 25922; settings: Escherichia coli, ATCC25922, E. coli, read-out: Inhibition zone diameter of standard antimicrobial agents; for zone of inhibition at 10 µg/disc: 10 μg/disk
Experimental: as §1, §2, §3

[8] = test system: Salmonella typhimurium ATCC 14028; settings: Salmonella enterica, Sa. typhimurium, read-out: Inhibition zone diameter of standard antimicrobial agents; for zone of inhibition at 10 µg/disc: 10 μg/disk
Experimental: as §1, §2, §3

[9] = test system: Staphylococcus aureus ATCC; settings: Staphylococcus aureus, S. aureus, read-out: Inhibition zone diameter of standard antimicrobial agents; for zone of inhibition at 10 µg/disc: 10 μg/disk
Experimental: as §1, §2, §3

[10] = test system: Streptococcus mutans ATCC 35668; settings: Streptococcus mutans, ATCC35668, S. mutans, read-out: Inhibition zone diameter of standard antimicrobial agents; for zone of inhibition at 10 µg/disc: 10 μg/disk
Experimental: as §1, §2, §3

[11] = Cryptococcus neoformans, read-out: Inhibition zone diameter of standard antimicrobial agents

Clc1ccccc1C(c1ccccc1)(c1ccccc1)n1ccnc1 [Canesten]
zone of inhibition at 10 µg/disc [1]: 23 mm
zone of inhibition at 10 µg/disc [2]: 26 mm
susceptibility of the strain to the standard drug, in words [3]: resistant
zone of inhibition at 10 µg/disc ([3]; Candida): 0 mm
zone of inhibition at 10 µg/disc [4, 11]: 25 mm
zone of inhibition at 10 µg/disc (Fusarium sp.): 15 mm
zone of inhibition at 10 µg/disc [5]: 30 mm

CC[C@H](C)C[C@H](C)CCCCCCCCC(=O)N[C@H]1C[C@@H](O)[C@@H](NCCN)NC(=O)[C@@H]2[C@@H](O)CCN2C(=O)[C@H]([C@H](O)CCN)NC(=O)[C@H]([C@H](O)[C@@H](O)c2ccc(O)cc2)NC(=O)[C@@H]2C[C@@H](O)CN2C(=O)[C@H]([C@@H](C)O)NC1=O [Caspofungin]
zone of inhibition at 10 µg/disc [1]: 20 mm
zone of inhibition at 10 µg/disc [2]: 20 mm
susceptibility of the strain to the standard drug, in words [3]: resistant
zone of inhibition at 10 µg/disc ([3]; Candida): 0 mm
susceptibility of the strain to the standard drug, in words ([4]; Cr. neoformans strain used in this study): resistance
zone of inhibition at 10 µg/disc [4, 11]: 0 mm
zone of inhibition at 10 µg/disc (Fusarium sp.): 0 mm
zone of inhibition at 10 µg/disc [5]: 0 mm

O=C(N[C@H](CO)[C@H](O)c1ccc([N+](=O)[O-])cc1)C(Cl)Cl [Chloramphenicol]
zone of inhibition at 30 µg/disc ([6]; 30 μg/disk): 34 mm
zone of inhibition at 30 µg/disc ([7]; 30 μg/disk): 40 mm
zone of inhibition at 30 µg/disc ([8]; 30 μg/disk): 30 mm
zone of inhibition at 30 µg/disc ([9]; 30 μg/disk): 30 mm
zone of inhibition at 30 µg/disc ([10]; 30 μg/disk): 20 mm

C[C@@H]1C[C@@H]([C@H](O)CC2CC(=O)NC(=O)C2)C(=O)[C@@H](C)C1 [Cycloheximide]
zone of inhibition at 30 µg/disc ([1]; 30 μg/disk): 22 mm
zone of inhibition at 30 µg/disc ([2]; 30 μg/disk): 0 mm
susceptibility of the strain to the standard drug, in words [3]: resistant
zone of inhibition at 30 µg/disc ([3]; Candida, ATCC22019, read-out: Inhibition zone diameter of standard antimicrobial agents): 0 mm
zone of inhibition at 30 µg/disc [4, 11]: 32 mm
zone of inhibition at 30 µg/disc (Fusarium sp.; Fusarium): 30 mm
zone of inhibition at 30 µg/disc [5]: 23 mm

CC(=O)O[C@H]1C[C@@]2(C)[C@@H](C[C@@H](O)[C@H]3[C@@]4(C)CC[C@@H](O)[C@@H](C)[C@@H]4CC[C@@]32C)/C1=C(\CCC=C(C)C)C(=O)O [Fusidic acid]
zone of inhibition at 10 µg/disc [6]: 20 mm
zone of inhibition at 10 µg/disc [7]: 0 mm
zone of inhibition at 10 µg/disc [8]: 0 mm
zone of inhibition at 10 µg/disc [9]: 23 mm
zone of inhibition at 10 µg/disc [10]: 10 mm

NC[C@H]1O[C@H](O[C@H]2[C@H](O)[C@@H](O[C@H]3O[C@H](CO)[C@@H](O)[C@H](N)[C@H]3O)[C@H](N)C[C@@H]2N)[C@H](N)C[C@@H]1O [Tobramycin]
zone of inhibition at 10 µg/disc [6]: 21 mm
zone of inhibition at 10 µg/disc [7]: 20 mm
zone of inhibition at 10 µg/disc [8]: 14 mm
zone of inhibition at 10 µg/disc [9]: 14 mm
zone of inhibition at 10 µg/disc [10]: 35 mm
